Series [1] concerns patients with advanced non-small cell lung carcinoma (NSCLC). Put plainly: Japan Phase III Clinical Trial: chemotherapy-induced peripheral neuropathy (Peripheral Neuropathy Questionnaire, PNQ). The format is in vivo. An excerpt: As utilized herein, the term "clinical trial" or "trial", refers to the Japan Phase III Clinical Trial disclosed in the present invention which was utilized to show the ability of Tavocept™ (also referred to in the literature as disodium 2,2'-dithio-bis-ethane sulfonate, dimesna, or BNP7787) to prevent and/or reduce peripheral neuropathy induced by paclitaxel/cisplatin combination therapy. […] The effects of Tavocept™ on the Quality of Life (QOL) of patients under anticancer treatment was also evaluated using the QOL questionnaire, EORTC QLQ-C30. Whether or not Tavocept™ would affect the efficacy of paclitaxel/cisplatin combination therapy was also evaluated based on the response rate, aggravation-free survival period, and total survival period. […]
The Japan Phase III Clinical Trial was conducted as a double-blind study because peripheral neuropathy is diagnosed based on subjective symptoms evaluated through clinical interviews, lab tests, and the like. […] Because the severity of peripheral neuropathy is evaluated based on patients' reports (i.e., subjective symptoms), the Peripheral Neuropathy Questionnaire (PNQ^©) was used in primary evaluation. […]

For series [2], the system named is non-small cell lung carcinoma (NSCLC) patients. The experiment in a line: Japan Phase III Clinical Trial: decrease in hemoglobin, erythrocyte and hematocrit levels. Format: in vivo. The note with it: Tavocept arm with paclitaxel and cisplatin, Fig. 3. An excerpt: (§1) As utilized herein, the term "clinical trial" or "trial", refers to the Japan Phase III Clinical Trial disclosed in the present invention which was utilized to show the ability of Tavocept™ (also referred to in the literature as disodium 2,2'-dithio-bis-ethane sulfonate, dimesna, or BNP7787) to prevent and/or reduce peripheral neuropathy induced by paclitaxel/cisplatin combination therapy. The incidence and severity of adverse reactions, time to their onset, etc. and the like, were compared between patients treated with Tavocept™ and those given a placebo using Quality of Life (QOL) questionnaires (i.e., Peripheral Neuropathy Questionnaire (PNQ^©) and CIPN-20)) and the National Cancer Institute - Common Toxicity Criteria (NCI-CTC). The effects of Tavocept™ on the Quality of Life (QOL) of patients under anticancer treatment was also evaluated using the QOL questionnaire, EORTC QLQ-C30. Whether or not Tavocept™ would affect the efficacy of paclitaxel/cisplatin combination therapy was also evaluated based on the response rate, aggravation-free survival period, and total survival period. In order to make all these evaluations, Tavocept™ (approximately14-22 g/m^2, most preferably approximately 18.4 g/m^2) or placebo (0.9% NaCl) was administered to non-small cell lung carcinoma (NSCLC) patients, including adenocarcinoma patients, under chemotherapy with paclitaxel (approximately 160-190 mg/m^2, most preferably approximately 175 mg/m^2) and cisplatin (approximately 60-100 mg/m^2, most preferably approximately 80 mg/m^2), every 3 weeks (and repeated for a minimum of 2 cycles).
(§2) Data was recently unblinded from a multicenter double-blind randomized placebo-controlled Phase III clinical trial of the Formula (I) compound Tavocept™ (also known as BNP7787, disodium 2,2'-dithio-bis-ethane sulfonate, and dimesna) conducted in Japan (hereinafter the "Japan Phase III Clinical Trial") and involving patients with advanced non-small cell lung carcinoma (NSCLC) who received the chemotherapeutic drugs paclitaxel and cisplatin. […]

For series [3], the system named is non-small cell lung carcinoma (NSCLC). Put plainly: Japan Phase III Clinical Trial: tumor response rate to chemotherapy. Format: in vivo, patients. The note with it: Tavocept arm with paclitaxel and cisplatin, Fig. 4.
Text: as §1, with “In order to make all these evaluations, Tavocept™ (approximately14-22 g/m^2, most preferably approximately 18.4 g/m^2) or placebo (0.9% NaCl) was administered to non-small cell lung carcinoma (NSCLC) patients, including adenocarcinoma patients, under chemotherapy with paclitaxel (approximately 160-190 mg/m^2, most preferably approximately 175 mg/m^2) and cisplatin (approximately 60-100 mg/m^2, most preferably approximately 80 mg/m^2), every 3 weeks (and repeated for a minimum of 2 cycles).” left out

For series [4] the test system is unchanged. Put plainly: Japan Phase III Clinical Trial: patient survival, NSCLC. Format: in vivo, patients.
Text: as §1, §2

The subject of the next series is adenocarcinoma. The experiment in a line: Japan Phase III Clinical Trial: patient survival, adenocarcinoma. Format: in vivo, patients.
Text: as §1, with “In order to make all these evaluations, Tavocept™ (approximately14-22 g/m^2, most preferably approximately 18.4 g/m^2) or placebo (0.9% NaCl) was administered to non-small cell lung carcinoma (NSCLC) patients, including adenocarcinoma patients, under chemotherapy with paclitaxel (approximately 160-190 mg/m^2, most preferably approximately 175 mg/m^2) and cisplatin (approximately 60-100 mg/m^2, most preferably approximately 80 mg/m^2), every 3 weeks (and repeated for a minimum of 2 cycles).” left out

Series [5] has as its system non-small cell lung carcinoma (NSCLC) patients. Put plainly: Japan Phase III Clinical Trial: other chemotherapy-related symptoms and toxicities. The format is in vivo.
Text: as §1
Data was recently unblinded from a multicenter double-blind randomized placebo-controlled Phase III clinical trial of the Formula (I) compound Tavocept™ (also known as BNP7787, disodium 2,2'-dithio-bis-ethane sulfonate, and dimesna) conducted in Japan (hereinafter the "Japan Phase III Clinical Trial") and involving patients with advanced non-small cell lung carcinoma (NSCLC) who received the chemotherapeutic drugs paclitaxel and cisplatin.
Patients admitted into the trial included those patients without previous treatment (excluding surgical treatment, administration of Picibanil into the serous membrane, irradiation of 30% or less hematopoietic bone, or oral chemotherapeutic agents within 3 months of entry in the trial).
The Japan Phase III Clinical Trial was conducted as a double-blind study because peripheral neuropathy is diagnosed based on subjective symptoms evaluated through clinical interviews, lab tests, and the like. Accordingly, evaluations by both physicians and patients are highly important. […] A placebo was used as control since there is no established therapy or drug for preventing peripheral neuropathy. Because the severity of peripheral neuropathy is evaluated based on patients' reports (i.e., subjective symptoms), the Peripheral Neuropathy Questionnaire (PNQ^©) was used in primary evaluation. CIPN-20 and NCI-CTC were used in secondary evaluation. The incidence and severity of adverse reactions, time to their onset, etc. and the like, were compared between patients treated with Tavocept™ and those given a placebo using the aforementioned methods.
In order to conduct the present trial, Tavocept™ (approximately14-22 g/m^2, most preferably approximately 18.4 g/m^2) or placebo (0.9% NaCl) was administered to non-small cell lung carcinoma (NSCLC) patients receiving chemotherapy with paclitaxel (approximately 160-190 mg/m^2, most preferably approximately 175 mg/m^2) and cisplatin (approximately 60-100, most preferably approximately 80 mg/m^2), every 3 weeks (and repeated for a minimum of 2 cycles).

Where [6] appears, read: clinical trial population, summary statement.

With `O=S(=O)([O-])CCSSCCS(=O)(=O)[O-].[Na+].[Na+]` [Tavocept™, disodium 2,2'-dithio-bis-ethane sulfonate], the chemotherapy-induced peripheral neuropathy entry in series [1] (Tavocept and chemotherapy vs chemotherapy and placebo, summary statement) is “medically-important reductions”. For the same molecule, in series [1] (paclitaxel/Tavocept/cisplatin regimen vs paclitaxel/saline placebo/cisplatin regimen, PNQ, Fig. 1), the “reduction in severe (Grade D or E) peripheral neuropathy” value is given as approximately 50%. For the same molecule, in series [2] (placebo arm 5), the “patients with Grade 3 (severe) decrease in hematocrit levels” value stood at 1 patients and the “patients with Grade 3 (severe) decrease in red blood cell” value is reported as 1 patients. In addition, in series [2] (placebo arm 8), the “patients with Grade 3 (severe) decrease in hemoglobin” value was determined as 2 patients. Moreover, the “response rate as measured by the IRC” value in series [3] (Independent Radiological Committee, placebo arm 28.6%) was 33.3%. Moreover, the “Response Rate, as measured by physicians” value in series [3] (placebo arm 33.0%) was found to be 41.9%. The “increase in median survival time” value in series [4] (NSCLC patients, paclitaxel/Tavocept/cisplatin vs paclitaxel/saline placebo/cisplatin, Fig. 5) is “up to 40 days”. Also, in series [4] (female NSCLC patients, paclitaxel/Tavocept/cisplatin vs paclitaxel/saline placebo/cisplatin, Fig. 6), the survival period entry is on record as “longer survival period”. For the same molecule, in series [4] (patients with advanced NSCLC receiving Tavocept and chemotherapy, summary statement), the survival times result is on record as “increased survival times”. Further, the “increase in median survival time” value in the series with adenocarcinoma (adenocarcinoma patients, paclitaxel/Tavocept/cisplatin vs paclitaxel/saline placebo/cisplatin, Fig. 7) is “up to 138 days”. Besides, the survival time entry in the series with adenocarcinoma (patients with adenocarcinoma receiving Tavocept and chemotherapy, summary statement) is on record as “medically-important increase”. Also, in series [5] (setting [6]), the chemotherapy-induced kidney damage result is “medically-important reductions” and the chemotherapy-induced vomiting/emesis entry was “medically-important reductions”. Moreover, the anorexia entry in series [5] (p = 0.0029, paclitaxel/Tavocept/cisplatin vs placebo regimen) is given as “reductions”. In addition, the fatigue result in series [5] (p = 0.0163, paclitaxel/Tavocept/cisplatin vs placebo regimen) is on record as “reductions”. For the same molecule, in series [5] (p = 0.0240, paclitaxel/Tavocept/cisplatin vs placebo regimen), the nausea/vomiting entry is reported as “reductions”. Moreover, the diarrhea result in series [5] (p = 0.0859, paclitaxel/Tavocept/cisplatin vs placebo regimen) is “reductions”. In addition, the insomnia entry in series [5] (p = 0.1108, paclitaxel/Tavocept/cisplatin vs placebo regimen) is listed as “reductions”. Besides, in series [5] (p = 0.1114, paclitaxel/Tavocept/cisplatin vs placebo regimen), the constipation entry was “reductions”.

The values are drawn from patent publication EP2249825B1, “TREATMENT METHODS AND COMPOSITIONS FOR LUNG CANCER, ADENOCARCINOMA, AND OTHER MEDICAL CONDITIONS” (BIONUMERIK PHARMACEUTICALS, INC., priority 2008, dated 2009).
